Assay results reported in patent EP4745138A1, “THIO-GLUTARIMIDO ISOINDOLINONE DERIVATIVE, BIFUNCTIONAL PROTEIN DEGRADER CONTAINING SAME, AND USES THEREOF” (Gluetacs Therapeutics (Shanghai) Co., Ltd., priority 2023, dated 2025).
Where two headings read alike, the source gives them in different places.

Key:
MM.1S = assay: Tumor cell proliferation inhibition (CellTiter-Meiluncell Luminescent Cell Viability Assay); format: cell-based; conditions: Homo sapiens, MM1.S, MM.1S, 96 hours; for inhibition at 0.01 µM: 10 nM, read-out: Inhibition Rate at 10 nM (%)
Summary of the method: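 Following overnight seeding, tumor cells received serial compound dilutions to final levels that included 10 nM and 500 nM. Viability was assessed by luminescence at the end of the specified exposure time. Cultures were kept at 37°C with 5% CO2.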

AKT = assay: Western blot, target protein degradation in hPBMC Cell; format: cell-based, Human; conditions: substrate protein remaining %, treated at 50 nM and 500 nM, 24 hours
Method: (§1) Conventional Western blot assay was performed to evaluate the effects of the compounds of the present disclosure on the expression of target proteins in cells.
(§2) (1) Cell Seeding and Protein Harvesting: The selected cells were processed according to the cell seeding procedure and protein harvesting procedure in Table II-2. Table II-2 Cell Seeding and Protein Harvesting Procedures
(§3) (2) To the collected supernatant, 5X SDS sample loading buffer was added, followed by denaturation at 95°C for 5 minutes. The denatured samples were then separated by SDS-PAGE electrophoresis on a polyacrylamide gel. Proteins were transferred to a nitrocellulose membrane (0.45 µm NC membrane), blocked with blocking buffer at room temperature for 1 hour, and subjected to antibody incubation and development procedures according to the antibody manufacturer's instructions (Cell Signaling Technology).
(§4) Half-Maximal Degradation Concentration value (the drug concentration required for degrading proteins by 50%, abbreviated as DC50) reads method: comparing the grayscale values of Western blot bands from drug-treated samples with those from blank DMSO-treated controls, and identifying the drug concentration range at which the grayscale value is half that of the DMSO-treated control bands.
(§5) DC50 values can be calculated using ImageJ software to measure grayscale values of Western blot bands from drug-treated samples. The concentration-response curve is fitted to estimate the drug concentration corresponding to half the grayscale value.
(§6) Target protein remaining (%) refers to the percentage of target protein remaining in cells after treatment with protein degrader compounds.
(§7) Calculation method for target protein remaining (%): Use ImageJ software to measure grayscale values of Western blot bands from drug (protein degrader)-treated samples. The grayscale value of drug-treated bands is divided by that of internal control protein bands, and the resulting quotient is normalized to obtain the relative percentage of remaining target protein after protein degrader treatment. […]

[1] = biological target: T1, human Cereblon WT GST-tagged protein (Homo sapiens, UniProt Q96SW2); assay: CRBN-binding affinity, HTRF (CEREBLON BINDING kit); conditions: for inhibition at 0.5 µM: read-out: Inhibition Rate at 0.5 µM (%); for inhibition at 2 µM: read-out: Inhibition Rate at 2 µM (%)
T1 construct: purchased CISBIO 64BDCRBNPEH
T1 sequence (Q96SW2 whole entry): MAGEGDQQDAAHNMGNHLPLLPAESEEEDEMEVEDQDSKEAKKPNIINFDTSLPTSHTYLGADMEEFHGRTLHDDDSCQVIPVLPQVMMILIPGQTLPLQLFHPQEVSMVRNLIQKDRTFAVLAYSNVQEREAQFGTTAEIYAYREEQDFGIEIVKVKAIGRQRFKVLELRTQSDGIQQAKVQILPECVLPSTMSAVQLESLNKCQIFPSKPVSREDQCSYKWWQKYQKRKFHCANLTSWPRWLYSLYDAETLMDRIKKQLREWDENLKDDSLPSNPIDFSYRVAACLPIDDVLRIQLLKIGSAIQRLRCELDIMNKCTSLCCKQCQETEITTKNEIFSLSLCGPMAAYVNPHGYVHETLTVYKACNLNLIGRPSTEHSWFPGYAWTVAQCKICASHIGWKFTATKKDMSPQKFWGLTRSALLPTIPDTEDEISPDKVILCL
Summary of the method: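 Binding to GST-tagged Cereblon was probed by HTRF tracer displacement (thalidomide-red acceptor, anti-GST Eu donor), with compounds present at final 2 µM and 0.5 µM.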

HCC827 = assay: Tumor cell proliferation inhibition (CellTiter-Meiluncell Luminescent Cell Viability Assay); conditions: Homo sapiens, 96 hours, Table I-1, designed based on the ALK inhibitors, read-out: Inhibitory activity (IC50, nM) HCC827
Method: (§8) The tumor cells used herein were cultured in a cell culture medium listed in table 3 at 37°C in an incubator with 5% CO2. Prior to experimentation, all cell lines used were correctly identified by STR profiling, and tested negative for mycoplasma contamination using a mycoplasma detection kit through routine screenings. Table 3. Tumor cells and cell culture medium used in the present disclosure
(§9) The IC50 values of the compounds of the present disclosure (including the compounds in Table 1, Table 2, and Examples) were determined using the CellTiter-Meiluncell Luminescent Cell Viability Assay Kit from Dalian Meilun Biotech Co., Ltd. The detailed procedure is as follows: Tumor cells were seeded in 96-well cell culture plates at the densities specified in Table 4. On the following day, the test compounds of the present disclosure were subjected to serial dilution. […] Subsequently, 0.5 µL of the test compound dilution was transferred into the 96-well plate containing the cells, with each well containing 100 µL of cell culture medium. […] Into the 96-well plate, the diluted test compounds and corresponding detection reagents were added, resulting in final test compound concentrations of 500 nM and 10 nM, respectively. The experimental procedure is described below using the diluted 2 µM test compound as an example.
(§10) 0.5 µL of the aforementioned diluted compound of the present disclosure (including the compounds in Table 1, Table 2, and Examples) was added to the seeded cells in 100 µL of medium, yielding a final test compound concentration of 10 nM. After the cells were treated with the compounds of the present disclosure for a specified period, the cell viability assay reagent was added to the culture medium according to the kit's instructions to determine cell viability. […] All controls were treated using the same procedure as the compounds of the present disclosure. […] Seeding protocol and treatment time for tumor cells

SR = assay: as above; conditions: Homo sapiens, 96 hours, Table I-1, designed based on the ALK inhibitors, read-out: Inhibitory activity (IC50, nM) SR
Method: as §8, §9, §10

ALK = biological target: T2, ALK (Homo sapiens, UniProt Q96SW2+Q9HC35+Q9UM73); assay: Western blot, target protein degradation in H2228 Cell; format: cell-based; conditions: substrate protein remaining %, treated at 500 nM and 50 nM, 24 hours
T2 construct: endogenous in cells; host or cells: H2228
T2 sequence (Q9HC35+Q9UM73 fused): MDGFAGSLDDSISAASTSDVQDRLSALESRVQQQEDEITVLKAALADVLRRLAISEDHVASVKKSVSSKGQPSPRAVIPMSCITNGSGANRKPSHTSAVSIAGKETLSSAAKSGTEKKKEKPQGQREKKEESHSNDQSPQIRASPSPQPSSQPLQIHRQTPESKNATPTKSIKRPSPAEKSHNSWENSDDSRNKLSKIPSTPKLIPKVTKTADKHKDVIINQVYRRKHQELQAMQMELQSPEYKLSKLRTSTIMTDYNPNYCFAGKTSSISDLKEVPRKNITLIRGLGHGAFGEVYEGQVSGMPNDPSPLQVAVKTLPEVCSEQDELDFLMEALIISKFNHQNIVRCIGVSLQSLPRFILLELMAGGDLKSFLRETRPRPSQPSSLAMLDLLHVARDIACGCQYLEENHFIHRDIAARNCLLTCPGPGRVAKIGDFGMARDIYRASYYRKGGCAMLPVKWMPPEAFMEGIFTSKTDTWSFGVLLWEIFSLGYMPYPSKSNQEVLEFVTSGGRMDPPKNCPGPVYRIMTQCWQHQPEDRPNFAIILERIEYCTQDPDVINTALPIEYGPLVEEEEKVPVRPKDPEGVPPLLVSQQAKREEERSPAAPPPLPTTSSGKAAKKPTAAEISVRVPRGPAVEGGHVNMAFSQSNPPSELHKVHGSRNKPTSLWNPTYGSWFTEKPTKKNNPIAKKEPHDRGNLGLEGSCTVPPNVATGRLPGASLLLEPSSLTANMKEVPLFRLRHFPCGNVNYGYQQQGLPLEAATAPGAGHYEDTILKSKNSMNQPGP
T2 sequence (Q96SW2 whole entry): as the sequence (Q96SW2 whole entry) above
T2 sequence (Q16531 whole entry partner): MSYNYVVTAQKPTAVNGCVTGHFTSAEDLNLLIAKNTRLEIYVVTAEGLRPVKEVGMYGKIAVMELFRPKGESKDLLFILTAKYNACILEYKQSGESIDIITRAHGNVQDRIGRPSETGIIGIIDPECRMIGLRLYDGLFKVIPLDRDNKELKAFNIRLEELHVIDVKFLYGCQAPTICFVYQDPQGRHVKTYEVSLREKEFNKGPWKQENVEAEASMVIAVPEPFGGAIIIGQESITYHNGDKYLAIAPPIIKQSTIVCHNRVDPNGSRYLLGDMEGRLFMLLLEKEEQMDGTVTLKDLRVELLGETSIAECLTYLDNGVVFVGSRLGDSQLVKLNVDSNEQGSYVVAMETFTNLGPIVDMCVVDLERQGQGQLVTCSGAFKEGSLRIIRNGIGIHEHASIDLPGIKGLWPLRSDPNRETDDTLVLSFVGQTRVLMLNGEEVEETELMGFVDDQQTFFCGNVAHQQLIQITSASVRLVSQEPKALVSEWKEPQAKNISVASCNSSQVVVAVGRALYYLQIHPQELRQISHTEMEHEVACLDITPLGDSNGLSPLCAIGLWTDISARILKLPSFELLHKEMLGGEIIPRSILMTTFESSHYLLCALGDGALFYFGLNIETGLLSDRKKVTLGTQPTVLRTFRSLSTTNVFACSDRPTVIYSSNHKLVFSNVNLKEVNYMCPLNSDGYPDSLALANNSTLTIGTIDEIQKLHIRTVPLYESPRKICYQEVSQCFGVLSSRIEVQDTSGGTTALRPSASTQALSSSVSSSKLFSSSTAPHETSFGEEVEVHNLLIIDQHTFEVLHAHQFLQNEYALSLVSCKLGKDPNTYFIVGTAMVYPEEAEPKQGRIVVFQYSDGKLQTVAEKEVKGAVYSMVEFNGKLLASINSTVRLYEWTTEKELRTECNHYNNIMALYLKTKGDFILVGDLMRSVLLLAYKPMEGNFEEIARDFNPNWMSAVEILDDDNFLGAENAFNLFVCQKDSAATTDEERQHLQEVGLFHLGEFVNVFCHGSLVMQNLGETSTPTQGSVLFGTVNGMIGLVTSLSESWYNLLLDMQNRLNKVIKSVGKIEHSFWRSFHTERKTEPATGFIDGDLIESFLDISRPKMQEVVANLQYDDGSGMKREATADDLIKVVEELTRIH
Method: as §1, §2, §3, §4, §5, §6
(§11) Calculation method for target protein remaining (%): Use ImageJ software to measure grayscale values of Western blot bands from drug (protein degrader)-treated samples. The grayscale value of drug-treated bands is divided by that of internal control protein bands, and the resulting quotient is normalized to obtain the relative percentage of remaining target protein after protein degrader treatment. Target protein degradation rate(%) = 1−target protein remaining(%). [formula]

Tau = assay: Western blot, target protein degradation in H4 Cell; format: cell-based; conditions: substrate protein remaining %, treated at 500 nM and 50 nM, 24 hours
Method: as §1, §2, §3, §4, §5, §6, §7

WEE1 = assay: Western blot, substrate protein degradation in hPBMC Cell; format: cell-based, Human; conditions: substrate protein remaining %, treated at 50 nM and 500 nM, 24 hours
Method: as §1, §2, §3, §4, §5, §6, §11

CK1α = biological target: T3, CK1α (Homo sapiens, UniProt P48729+Q96SW2); assay: as above; format: cell-based; conditions: substrate protein remaining %, treated at 50 nM and 500 nM, 24 hours
T3 construct: endogenous in cells; host or cells: hPBMC
T3 sequence (P48729 whole entry): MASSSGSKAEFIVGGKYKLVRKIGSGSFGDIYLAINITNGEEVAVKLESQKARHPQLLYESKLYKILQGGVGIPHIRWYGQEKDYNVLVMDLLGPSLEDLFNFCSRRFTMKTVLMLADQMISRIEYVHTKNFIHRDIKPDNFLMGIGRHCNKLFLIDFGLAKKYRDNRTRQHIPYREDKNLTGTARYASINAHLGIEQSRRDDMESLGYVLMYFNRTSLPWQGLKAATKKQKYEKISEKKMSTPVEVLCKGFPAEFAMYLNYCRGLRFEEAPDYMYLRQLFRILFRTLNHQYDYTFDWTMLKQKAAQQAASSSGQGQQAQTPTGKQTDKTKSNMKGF
T3 sequence (Q96SW2 whole entry): as the sequence (Q96SW2 whole entry) above
T3 sequence (Q16531 whole entry partner): as the sequence (Q16531 whole entry partner) above
Method: as §1, §2, §3, §4, §5, §6, §11

GSPT1 = biological target: T4, GSPT1 (Homo sapiens, UniProt P15170+Q96SW2); assay: as above; format: cell-based; conditions: substrate protein remaining %, treated at 50 nM and 500 nM, 24 hours
T4 construct: endogenous in cells; host or cells: hPBMC
T4 sequence (P15170 whole entry): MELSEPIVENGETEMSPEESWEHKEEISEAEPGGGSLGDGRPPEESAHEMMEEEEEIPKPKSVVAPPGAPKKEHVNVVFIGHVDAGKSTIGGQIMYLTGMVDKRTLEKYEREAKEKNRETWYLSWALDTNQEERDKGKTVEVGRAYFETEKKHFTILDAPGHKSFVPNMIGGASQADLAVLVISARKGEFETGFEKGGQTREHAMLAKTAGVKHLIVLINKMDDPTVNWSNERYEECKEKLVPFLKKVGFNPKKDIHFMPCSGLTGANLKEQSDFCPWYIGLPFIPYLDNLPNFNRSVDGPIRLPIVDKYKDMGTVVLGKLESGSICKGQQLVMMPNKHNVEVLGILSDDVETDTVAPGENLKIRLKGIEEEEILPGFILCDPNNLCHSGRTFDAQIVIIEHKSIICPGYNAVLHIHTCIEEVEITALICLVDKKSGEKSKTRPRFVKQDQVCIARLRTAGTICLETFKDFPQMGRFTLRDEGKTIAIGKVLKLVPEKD
T4 sequence (Q96SW2 whole entry): as the sequence (Q96SW2 whole entry) above
T4 sequence (Q16531 whole entry partner): as the sequence (Q16531 whole entry partner) above
Method: as §1, §2, §3, §4, §5, §6, §11

IKZF1 = biological target: T5, IKZF1 (Homo sapiens, UniProt Q13422+Q96SW2); assay: as above; format: cell-based; conditions: substrate protein remaining %, treated at 50 nM and 500 nM, 24 hours
T5 construct: endogenous in cells; host or cells: hPBMC
T5 sequence (Q13422 whole entry): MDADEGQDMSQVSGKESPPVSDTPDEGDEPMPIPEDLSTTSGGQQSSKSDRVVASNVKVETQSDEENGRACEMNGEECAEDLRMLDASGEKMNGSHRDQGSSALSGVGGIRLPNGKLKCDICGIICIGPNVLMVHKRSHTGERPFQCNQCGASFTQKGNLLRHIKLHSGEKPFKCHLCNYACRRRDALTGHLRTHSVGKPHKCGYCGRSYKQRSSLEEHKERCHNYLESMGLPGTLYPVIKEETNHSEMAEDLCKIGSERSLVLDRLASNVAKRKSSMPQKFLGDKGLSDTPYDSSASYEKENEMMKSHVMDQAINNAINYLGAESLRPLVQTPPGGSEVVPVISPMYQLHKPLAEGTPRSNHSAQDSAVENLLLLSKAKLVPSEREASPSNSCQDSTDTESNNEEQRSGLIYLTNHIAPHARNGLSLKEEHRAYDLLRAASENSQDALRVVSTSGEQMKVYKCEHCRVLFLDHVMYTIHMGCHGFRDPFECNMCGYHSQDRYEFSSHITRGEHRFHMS
T5 sequence (Q96SW2 whole entry): as the sequence (Q96SW2 whole entry) above
T5 sequence (Q16531 whole entry partner): as the sequence (Q16531 whole entry partner) above
Method: as §1, §2, §3, §4, §5, §6, §11

IKZF2 = biological target: T6, IKZF2 (Homo sapiens, UniProt Q96SW2+Q9UKS7); assay: as above; format: cell-based; conditions: substrate protein remaining %, treated at 50 nM and 500 nM, 24 hours
T6 construct: endogenous in cells; host or cells: hPBMC
Method: as §1, §2, §3, §4, §5, §6, §11

IKZF3 = biological target: T7, IKZF3 (Homo sapiens, UniProt Q96SW2+Q9UKT9); assay: as above; format: cell-based; conditions: substrate protein remaining %, treated at 50 nM and 500 nM, 24 hours
T7 construct: endogenous in cells; host or cells: hPBMC
T7 sequence (Q9UKT9 whole entry): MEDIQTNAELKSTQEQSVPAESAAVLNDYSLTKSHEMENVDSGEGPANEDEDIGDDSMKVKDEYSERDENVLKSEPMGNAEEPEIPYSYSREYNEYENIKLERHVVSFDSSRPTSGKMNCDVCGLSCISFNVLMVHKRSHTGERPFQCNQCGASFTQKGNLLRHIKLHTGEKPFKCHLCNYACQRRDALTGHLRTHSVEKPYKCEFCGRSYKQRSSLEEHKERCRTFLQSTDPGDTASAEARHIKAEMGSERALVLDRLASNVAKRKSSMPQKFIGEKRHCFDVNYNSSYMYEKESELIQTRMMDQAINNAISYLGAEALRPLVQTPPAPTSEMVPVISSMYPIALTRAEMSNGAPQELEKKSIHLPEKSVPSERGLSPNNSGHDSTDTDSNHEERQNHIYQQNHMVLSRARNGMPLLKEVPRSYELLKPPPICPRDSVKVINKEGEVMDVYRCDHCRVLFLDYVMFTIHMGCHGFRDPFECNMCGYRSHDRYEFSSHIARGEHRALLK
T7 sequence (Q96SW2 whole entry): as the sequence (Q96SW2 whole entry) above
T7 sequence (Q16531 whole entry partner): as the sequence (Q16531 whole entry partner) above
Method: as §1, §2, §3, §4, §5, §6, §11

Compound | inhibition at 0.5 µM [1] [%] | inhibition at 2 µM [1] [%] | Degradation of substrate protein AKT (AKT) | Degradation of substrate protein Tau (Tau) | also measured
CCc1cc2c(cc1N1CCC(N3CCN(Cc4ccc5c(c4)C(=S)N(C4CCC(=O)NC4=O)C5)CC3)CC1)C(C)(C)c1[nH]c3cc(C#N)ccc3c1C2=O (stereo not shown) [GT-05030, 8-(4-(4-((2-(2,6-dioxopiperidin-3-yl)-3-thioxoisoindolin-5-yl)methyl)piperazin-1-yl)piperidin-1-yl)-9-ethyl-6,6-dimethyl-11-oxo-6,11-dihydro-5H-benzo[b]carbazole-3-carbonitrile] | 60 to 80 | 60 to 80 | – | – | IC50 (HCC827): 500 to 1000 nM; IC50 (SR): 10 to 20 nM; Degradation of substrate protein ALK (ALK): A (0% ≤ substrate protein remaining % ≤ 80%)
O=C1CCC(N2Cc3cc(CN4CCN(c5ccn6c(n5)nc5ccccc56)CC4)ccc3C2=S)C(=O)N1 (stereo not shown) [GT-08981, 3-(5-((4-(benzo[4,5]imidazo[1,2-a]pyrimidin-2-yl)piperazin-1-yl)methyl)-1-thioxoisoindolin-2-yl)piperidine-2,6-dione] | 60 to 80 | 80 to 100 | – | A (0% ≤ substrate protein remaining % ≤ 80%) | –
CCc1cc2c(cc1N1CCC(N3CCN(Cc4ccc5c(c4)CN(C4CCC(=O)NC4=O)C5=S)CC3)CC1)C(C)(C)c1[nH]c3cc(C#N)ccc3c1C2=O (stereo not shown) [GT-05097, 8-(4-(4-((2-(2,6-dioxopiperidin-3-yl)-1-thioxoisoindolin-5-yl)methyl)piperazin-1-yl)piperidin-1-yl)-9-ethyl-6,6-dimethyl-11-oxo-6,11-dihydro-5H-benzo[b]carbazole-3-carbonitrile] | 40 to 53 | 80 to 100 | – | – | IC50 (SR): 20 to 30 nM; Degradation of substrate protein ALK (ALK): A (0% ≤ substrate protein remaining % ≤ 80%)
CC(=O)N1CCCN(c2nc(NCCc3cccs3)nc(N3CCN(Cc4ccc5c(c4)CN(C4CCC(=O)NC4=O)C5=S)CC3)n2)CC1 (stereo not shown) [GT-08867, 3-(5-((4-(4-(4-acetyl-1,4-diazepan-1-yl)-6-((2-(thiophen-2-yl)ethyl)amino)-1,3,5-triazin-2-yl)piperazin-1-yl)methyl)-1-thioxoisoindolin-2-yl)piperidine-2,6-dione] | 53 to 60 | 80 to 100 | – | A (0% ≤ substrate protein remaining % ≤ 80%) | –
O=C1CCC(N2Cc3ccc(CO)cc3C2=S)C(=O)N1 (stereo not shown) [GT-05566, 3-(6-(hydroxymethyl)-1-thioxoisoindolin-2-yl)piperidine-2,6-dione] | – | – | – | – | inhibition at 0.01 µM (MM.1S; Table I-16, compounds of Formula (II)): 20 to 30%; Degradation of substrate protein WEE1 (WEE1): A (0% ≤ substrate protein remaining % ≤ 80%); Degradation of substrate protein CK1α (CK1α): B (80%< substrate protein remaining %≤ 100%); Degradation of substrate protein GSPT1 (GSPT1): A (0% ≤ substrate protein remaining % ≤ 80%); Degradation of substrate protein IKZF1 (IKZF1): A (0% ≤ substrate protein remaining % ≤ 80%); Degradation of substrate protein IKZF2 (IKZF2): A (0% ≤ substrate protein remaining % ≤ 80%); Degradation of substrate protein IKZF3 (IKZF3): A (0% ≤ substrate protein remaining % ≤ 80%); IC50 ([1]; CRBN binding, HTRF): < 500 nM

The next lines start with results.

inhibition at 0.5 µM [1] [%] | inhibition at 2 µM [1] [%] | Compound | Degradation of substrate protein AKT (AKT) | Degradation of substrate protein Tau (Tau) | also measured
30 to 40 | 60 to 80 | Cn1ncc(Cl)c1-c1cc(C(=O)N[C@H](CNCc2ccc3c(c2)CN(C2CCC(=O)NC2=O)C3=S)Cc2ccc(F)c(F)c2)oc1Cl (stereo partly drawn) [GT-08895, 5-chloro-4-(4-chloro-1-methyl-1H-pyrazol-5-yl)-N-((2S)-1-(3,4-difluorophenyl)-3-(((2-(2,6-dioxopiperidin-3-yl)-1-thioxoisoindolin-5-yl)methyl)amino)propan-2-yl)furan-2-carboxamide] | A (0% ≤ substrate protein remaining % ≤ 80%) | – | inhibition at 0.01 µM (MM.1S; Table I-14, AKT inhibitors): 30 to 40%; inhibition at 0.5 µM (MM.1S; 500 nM, Table I-14, AKT inhibitors, read-out: Inhibition Rate at 500 nM (%)): 50 to 60%
60 to 80 | 60 to 80 | Cn1ncc(Cl)c1-c1cc(C(=O)N[C@@H](Cc2cccc(F)c2)CN2CCN(Cc3ccc4c(c3)CN(C3CCC(=O)NC3=O)C4=S)CC2)sc1Cl (stereo partly drawn) [GT-08897, 5-chloro-4-(4-chloro-1-methyl-1H-pyrazol-5-yl)-N-((2S)-1-(4-((2-(2,6-dioxopiperidin-3-yl)-1-thioxoisoindolin-5-yl)methyl)piperazin-1-yl)-3-(3-fluorophenyl)propan-2-yl)thiophene-2-carboxamide] | A (0% ≤ substrate protein remaining % ≤ 80%) | – | –
53 to 60 | 60 to 80 | O=C1CCC(N2Cc3cc(CN4CCN(c5ccc(-c6ccc7c8cnccc8n(C(F)F)c7c6)cn5)CC4)ccc3C2=S)C(=O)N1 (stereo not shown) [GT-08979, 3-(5-((4-(5-(5-(difluoromethyl)-5H-pyrido[4,3-b]indol-7-yl)pyridin-2-yl)piperazin-1-yl)methyl)-1-thioxoisoindolin-2-yl)piperidine-2,6-dione] | – | A (0% ≤ substrate protein remaining % ≤ 80%) | –
53 to 60 | 80 to 100 | Cn1ncc(Cl)c1-c1cc(C(=O)N[C@@H](Cc2ccc(F)c(F)c2)CN2CCN(Cc3ccc4c(c3)CN(C3CCC(=O)NC3=O)C4=S)CC2)oc1Cl (stereo partly drawn) [GT-08896, 5-chloro-4-(4-chloro-1-methyl-1H-pyrazol-5-yl)-N-((2S)-1-(3,4-difluorophenyl)-3-(4-((2-(2,6-dioxopiperidin-3-yl)-1-thioxoisoindolin-5-yl)methyl)piperazin-1-yl)propan-2-yl)furan-2-carboxamide] | A (0% ≤ substrate protein remaining % ≤ 80%) | – | –
